In patent publication US7488476B2, “B-cell epitope peptides of HSP 65, DNA encoding said peptides, antibodies directed against said peptides and the different uses thereof in the treatment of inflammatory and autoimmune diseases” (priority 1998, dated 2009):

Experiments:
[1] = test system: Lewis rats; experiment: Modulation of Adjuvant Arthritis by pre-immunization with HSP peptides; assay type: in vivo, rat; details: 3 IP injections at one week intervals before AA induction with MT, FIG. 4
[2] = test system: rat immunoglobulins; experiment: ELISA: antibodies of rat sera to mammalian HSP 60 and its peptides; assay type: binding
Description: (§1) ELISA: Flat-bottomed 96 well plates (Corning) were coated with mammalian HSP 60 or Mycobacterial HSP 65 (10 μg/ml) in carbonate buffer pH 9.6 overnight at 4° C.
After extensive washing with PBS-Tween 0.05% plates were incubated with blocking buffer containing 1% BSA (Sigma) for 60 min. at RT.
(§2) HSP peptides were attached to plates pre-treated with glutaraldehyde according to Kasprzyk et al.. Shortly, plates were coated with 100 μl/well of 5% w/v of glutaraldehyde in PBS for 1 hour at room temp. Plates were washed thoroughly with PBS and peptides (1 μg/100 μl) were added to each well, incubated overnight at 4° C. Plates were shaken dry and blocked with BSA 1% in PBS.
(§3) Plates coated with either HSP or peptides were washed again and incubated with rat sera diluted 1:100 with PBS-Tween 0.01% for 90 min. at room temp. After re-washing the plates were incubated with Goat anti rat IgG or IgM conjugated to alkaline-phosphatase for 60 min. at room temp. […] Optical density was measured photometrically at 405 nm.
Previous studies have shown that certain bacterial HSP peptides may trigger self HSP reactive T-cells with disease suppressive regulatory potential. To analyze the anti self-HSP antibody repertoire of these rats, the reactivity of Ig's from naive and post AA Lewis rats as well as from naive BN rats to whole mammalian HSP 60 was tested by ELISA.
(§4) Immunoglobulins from naive Lewis and BN rats and post-AA Lewis rats were tested for binding to 38 synthetic 20-mer peptides of the mammalian HSP 60 by Dot-Blot. […] Quantitative analysis of this binding as well as the binding of immunoglobulins from four and nine month old Lewis rats confirmed the dot blot findings (Table 3).

[3] = test system: Lewis rats; experiment: Anti HSP antibodies in Lewis rats immunized with HSP peptides (ELISA); assay type: in vivo, rat; details: 100 μg peptide in PBS, 3 times IP; for Anti HSP Antibodies in Immunized Lewis Rats, Antigen 6: antigen peptide 6; for Anti HSP Antibodies in Immunized Lewis Rats, Antigen 7: antigen peptide 7
Description: as §1, §2, §3
Modulation of AA by mycobacterial and mammalian HSP peltides: HSP 65 derived peptides were tested for their ability to modulate the appearance or severity of AA in Lewis rats. Rats were immunized with 100 μg of each peptide in PBS, three weeks (3W), 2W and 1W before induction of AA by MT. Control rats received PBS. Rats were bled for testing antibody presence before injection of MT and 30 days post MT injection.
To test whether active immunization with bacterial or mammalian HSP peptides that are recognized by protective immunoglobulins can induce protection against AA, Lewis rats were immunized with the mycobacterial peptides 6, 7, 21, 31, 36, 45, 84, that bound antibodies from resistant Lewis rats (“protective” peptides), with some non-reactive mycobacterial HSP 65 peptides: peptide 26 (residues 151-166), 28 (residues 163-178) or peptide 70 (residues 415-430), and with the mammalian peptide 5.
Rats were injected 3 times intraperitoneally (IP), with one week intervals between injections before induction of AA with MT.

[4] = test system: rat immunoglobulins; experiment: Dot-Blot of rat immunoglobulins with synthetic HSP peptides; assay type: binding
Description: Dot Blots assay: Antigens were dissolved in PBS and samples of 1 μg were adsorbed on Nitrocellulose paper. The paper was air-dried and incubated with BSA 1% in PBS for 20 min. to block non-specific binding. The samples were then washed in PBS-Tween 0.05% and incubated with rat sera diluted 1:100 in BSA-PBS, for 90 min. at room temp. Samples were washed and incubated with goat anti rat antibody conjugated to alkaline phosphatase diluted 1:1000 in BSA-PBS for 90 min. at RT. After re-washing the color reaction was developed by adding a mixture of BCIP-NBT (Sigma-Fast, Sigma) to the […] for 15 min. The reaction was stopped by the addition of tap water.
To define the epitopes recognized by the anti bacterial HSP antibodies, the inventors tested by Dot-Blot the interaction of immunoglobulins from naive young BN rats and post AA Lewis rats with 90 16-mer synthetic peptides of the Mycobacterial 65 KD HSP. Immunoglobulins from naive young Lewis rats served as control.
as §4

[5] = test system: rat immunoglobulins; experiment: ELISA: antibodies of rat sera to Mycobacterial HSP 65 and its peptides; assay type: binding
[6] = BN and post-AA Lewis rats, not naive Lewis rats
[7] = all of the rats immunoglobulins tested

Substance | AA disease severity after pre-immunization [1] | Antibodies to Mammalian HSP 60 Peptides ([2]; strain BN-6w) | Antibodies to Mammalian HSP 60 Peptides ([2]; strain Lew-4m) | Antibodies to Mammalian HSP 60 Peptides ([2]; strain Lew-6w) | Antibodies to Mammalian HSP 60 Peptides ([2]; strain Lew-9m) | Antibodies to Mammalian HSP 60 Peptides ([2]; strain Lew-Post AA) | Anti HSP Antibodies in Immunized Lewis Rats, Antigen M5 [3] | Anti HSP Antibodies in Immunized Lewis Rats, Antigen MT-HSP 65 [3] | Anti HSP Antibodies in Immunized Lewis Rats, Antigen 6 [3] | Anti HSP Antibodies in Immunized Lewis Rats, Antigen 7 [3] | reaction with immunoglobulins in Dot-Blot [4, 6] | Antibodies to Mycobacterial HSP 65 Peptides ([5]; strain BN-6w) | Antibodies to Mycobacterial HSP 65 Peptides ([5]; strain Lew-4m) | Antibodies to Mycobacterial HSP 65 Peptides ([5]; strain Lew-6w) | Antibodies to Mycobacterial HSP 65 Peptides ([5]; strain Lew-9m) | Antibodies to Mycobacterial HSP 65 Peptides ([5]; strain Lew-Post AA) | reaction with immunoglobulins in Dot-Blot [4, 7] | reaction with immunoglobulins in Dot-Blot ([4]; Lewis rats immunized with CFA)
TVIIEQSWGSPKVTKDGVTV (listed as Rattus norvegicus) [Peptide R5, mammalian HSP 60 peptide, residues 61-80] | significant suppression of disease severity | + (0.16-0.45 = +) | − (<O. 15 = −) | − (<O. 15 = −) | ++ (0.46-0.75 = ++) | +++ (>0.75 = +++) | − (<O. 15 = −) | + (0.16-0.45 = +) | + (0.16-0.45 = +) | − (<O. 15 = −) | reacted |  |  |  |  |  |  | 
40: 16-mer synthetic peptide of Mycobacterial HSP 65, residues 236-251, SEQ ID #13 [Peptide 40] |  |  |  |  |  |  |  |  |  |  |  | ++ (0.46-0.75 = ++) | + (0.16-0.45 = +) | + (0.16-0.45 = +) | ++ (0.46-0.75 = ++) | ++ (0.46-0.75 = ++) | reacted | 
63: 16-mer synthetic peptide of Mycobacterial HSP 65, residues 373-388, SEQ ID #16 [Peptide 63] |  |  |  |  |  |  |  |  |  |  |  | + (0.16-0.45 = +) | + (0.16-0.45 = +) | + (0.16-0.45 = +) | +++ (>0.75 = +++) | ++ (0.46-0.75 = ++) | reacted | 
31: 16-mer synthetic peptide of Mycobacterial HSP 65, residues 181-196, SEQ ID #11 [Peptide 31] |  |  |  |  |  |  |  |  |  |  |  | + (0.16-0.45 = +) | − (<O. 15 = −) | − (<O. 15 = −) | ++ (0.46-0.75 = ++) | ++ (0.46-0.75 = ++) |  | 
HSP 65: Recombinant HSP 65 of Mycobacterium Tuberculosis |  |  |  |  |  |  |  |  |  |  |  | +++ (>0.75 = +++) | − (<O. 15 = −) | − (<O. 15 = −) | + (0.16-0.45 = +) | ++ (0.46-0.75 = ++) |  | 
36: 16-mer synthetic peptide of Mycobacterial HSP 65, residues 211-226, SEQ ID #12 [Peptide 36] |  |  |  |  |  |  |  |  |  |  |  | ++ (0.46-0.75 = ++) | + (0.16-0.45 = +) | − (<O. 15 = −) | + (0.16-0.45 = +) | +++ (>0.75 = +++) |  | 
45: 16-mer synthetic peptide of Mycobacterial HSP 65, residues 265-280, SEQ ID #14 [Peptide 45] |  |  |  |  |  |  |  |  |  |  |  | + (0.16-0.45 = +) | + (0.16-0.45 = +) | − (<O. 15 = −) | + (0.16-0.45 = +) | ++ (0.46-0.75 = ++) |  | 
21: 16-mer synthetic peptide of Mycobacterial HSP 65, residues 121-136, SEQ ID #10 [Peptide 21] |  |  |  |  |  |  |  |  |  |  |  | − (<O. 15 = −) | − (<O. 15 = −) | − (<O. 15 = −) | − (<O. 15 = −) | + (0.16-0.45 = +) |  | reacted
M 30: 20-mer synthetic peptide of the mammalian HSP 60, residues 436-455 (IVLGGGCALLRCIPALDSLK) |  | + (0.16-0.45 = +) | − (<O. 15 = −) | − (<O. 15 = −) | ++ (0.46-0.75 = ++) | ++ (0.46-0.75 = ++) |  |  |  |  | reacted |  |  |  |  |  |  | 
84: 16-mer synthetic peptide of Mycobacterial HSP 65, residues 499-514, SEQ ID #17 [Peptide 84] |  |  |  |  |  |  |  |  |  |  |  | − (<O. 15 = −) | − (<O. 15 = −) | − (<O. 15 = −) | − (<O. 15 = −) | + (0.16-0.45 = +) |  | reacted
VVLEKKWGAPTITNDG [Peptide 7] | significant suppression of disease severity |  |  |  |  |  | − (<O. 15 = −) | + (0.16-0.45 = +) | + (0.16-0.45 = +) | − (<O. 15 = −) |  | + (0.16-0.45 = +) | − (<O. 15 = −) | − (<O. 15 = −) | + (0.16-0.45 = +) | + (0.16-0.45 = +) |  | 
59: 16-mer synthetic peptide of Mycobacterial HSP 65, residues 349-364, SEQ ID #15 [Peptide 59] |  |  |  |  |  |  |  |  |  |  |  | + (0.16-0.45 = +) | − (<O. 15 = −) | − (<O. 15 = −) | − (<O. 15 = −) | +++ (>0.75 = +++) |  | 
